Source: US20090123420A1, “Regulation of T Cell-Mediated Immunity by D Isomers of Inhibitors of Indoleamine-2,3-Dioxygenase” (Medical College of Georgia Research Institute, Inc, priority 2003, published 2009)
“Also recorded” adds a separate entry of the source. Values belong to the molecule of their own block, whether it stands above or below them. No end group written: not given here.

How the values were obtained:
[1] = Comparative plasma pharmacokinetics of the stereo-isomers of 1-MT; assay type: in vivo, mouse
Procedure: Studies were conducted in conventional mice after IV, PO and SC doses of 50 mg/kg, and IP doses of 25 mg/kg, 50 mg/kg, and 100 mg/kg.

B16F10 melanomas = experiment: Established B16F10 melanoma model, 1MT with radiation or cyclophosphamide; assay type: in vivo, mouse; conditions: for effect on tumor growth, 1MT alone: established tumor, treatment from day 7, SQ pellets
Procedure: FIGS. 11A-11D. Administration of 1-MT enhances immune-mediated host anti-tumor effect when administered with radiation or cyclophosphamide. Mice were injected subcutaneously (SQ) with 4×10^4 B16F10 cells. […] Control mice received vehicle pellets without drug.
Mouse tumor models. C57BL/6 mice (Jackson, Bar Harbor, Me.) were implanted with tumors in the anteriomedial thigh, using either 4×10^4 B16F10 (ATCC, Bethesda, Md.) or 1×10^6 B78H1•GM-CSF. B78H1•GM-CSF cells recruit large numbers of APCs (Dranoff et al., Proc. Natl. Acad. Sci. USA, 1993; 90:3539) and were originally designed as a vaccine strategy. GMCSF-transfected tumors are immunogenic if lethally irradiated prior to injection (Borrello et al., Hum. Gene Ther., 1999; 10:1983), but live tumors grow progressively and create systemic tolerance to tumor antigens (Bronte et al., J. Immunol., 1999; 162:5728). Thus, B78H1•GM-CSF represented an excellent model for our studies, since it recruited many DCs but nevertheless […]. Tumors were 10-12 days after implantation, well prior to the stage of large, metastatic tumors (day 21) in which the hosts began to show alteration in spleen and non-tumor-draining LNs.
Not unexpected, given that the tumor had already been allowed to create tolerance in the host.

[2] = Pilot tissue biodistribution of D and L isomers after DL racemic mixture; assay type: in vivo, mouse; conditions: DL racemic mixture 10 mg/day SQ pellets, 72 hour infusion
Text: The results noted with spleen are particularly relevant because it is a lymphoid organ, and thus likely to be similar to tumor-draining lymph nodes.

IDO [3] = molecular target: IDO (Mus musculus, UniProt P28776); experiment: MLR with sorted tumor-draining lymph node (TDLN) cells as stimulators and BM3 responder T cells; conditions: 10x
IDO (Mus musculus, UniProt P28776), sequence (P28776 whole entry): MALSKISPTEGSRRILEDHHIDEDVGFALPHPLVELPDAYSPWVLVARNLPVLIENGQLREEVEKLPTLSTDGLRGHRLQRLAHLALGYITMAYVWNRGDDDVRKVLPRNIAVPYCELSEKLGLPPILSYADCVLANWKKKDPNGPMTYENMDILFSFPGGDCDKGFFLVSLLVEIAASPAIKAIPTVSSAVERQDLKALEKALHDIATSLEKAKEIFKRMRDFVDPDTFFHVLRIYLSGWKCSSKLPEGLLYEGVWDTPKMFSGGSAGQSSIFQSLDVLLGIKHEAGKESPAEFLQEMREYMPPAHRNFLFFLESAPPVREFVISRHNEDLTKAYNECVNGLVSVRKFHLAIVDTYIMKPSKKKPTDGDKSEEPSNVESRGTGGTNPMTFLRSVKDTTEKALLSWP
Procedure: T cell activation in MLR. BM3 responder T cells were prepared from spleen by nylon-wool enrichment. Stimulators (sorted DCs or unfractionated TDLN) were mixed with 1×10^5 BM3 responder cells in 200 ul IMDM at the ratios shown in each figure. After 3 days, proliferation was measured by 4-hour thymidine incorporation assay.
MLRs were thus “two-way” reactions. However, the small number of sorted DCs used as stimulators contributed negligible proliferation compared to the large population of TCR-transgenic responder cells. Since the relevant readout was dominant suppression, the two-way MLR design presented no problem in interpretation.
Pooled draining LN cells (4 nodes) were stained and fractionated by 4-color MoFlo cell sorting for the two populations shown in the schematic of FIG. 5B. All other cells were collected in a third fraction. Each fraction was then used as stimulators in MLRs, using 50,000 BM3 T cells as responders. The number of stimulators used in each MLR was adjusted to be the same as would have been present in 50,000 cells of the original LN preparation, based on the measured percentage of each sorted fraction. Thus, 500 cells of the sorted B220^+ CD11c^+ fraction were added per well, and 1500 cells of the CD25^+ CD4^+ fraction, while 48,000 cells of the “all other” fraction were used.

IDO [4] = molecular target: IDO (Homo sapiens, UniProt P14902); experiment: Allogeneic mixed-leukocyte reaction (MLR) with IDO-expressing human monocyte-derived DCs, T cell proliferation by thymidine incorporation; conditions: 250 uM in culture medium
IDO (Homo sapiens, UniProt P14902), sequence (P14902 whole entry): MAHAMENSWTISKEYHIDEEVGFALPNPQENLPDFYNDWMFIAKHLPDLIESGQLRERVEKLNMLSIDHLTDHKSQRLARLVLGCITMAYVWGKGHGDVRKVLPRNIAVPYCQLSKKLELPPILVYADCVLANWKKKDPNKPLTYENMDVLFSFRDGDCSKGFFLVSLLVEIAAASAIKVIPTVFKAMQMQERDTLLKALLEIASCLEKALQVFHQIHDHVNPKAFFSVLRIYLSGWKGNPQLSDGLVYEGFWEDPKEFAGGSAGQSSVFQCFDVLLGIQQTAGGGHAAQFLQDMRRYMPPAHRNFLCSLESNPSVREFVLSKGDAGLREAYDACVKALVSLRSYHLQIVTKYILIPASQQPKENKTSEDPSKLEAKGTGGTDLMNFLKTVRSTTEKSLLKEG
Procedure: Replicate MLRs received each compound at the concentrations shown. Bars represent T cell proliferation at the end of the 5-day activation period.
After 5 days, proliferation was measured by 4 hour thymidine incorporation assay. “V”-bottom culture wells (Nunc) were used in MLR assays to maximize cell-cell contact.
DCs were used as stimulators in allogeneic mixed-leukocyte reactions (MLRs), with allogeneic lymphocytes as responder cells.

IDO [5] = experiment: Recall MLR of primed recipient LN cells with 1MT added to the MLR; assay type: cell-based, mouse; conditions: responders from recipients of TDLN DCs
P815 with IDO = conditions: concomitant administration; cited from earlier work
[6] = system: Lewis Lung carcinoma (LLC); conditions: mouse, in vivo; cited from earlier work
[7] = molecular target: rabbit polyclonal anti-human IDO antibody (raised against the KLH-conjugated peptide of SEQ ID NO:1, affinity purified); experiment: flow cytometry of IFNγ-activated monocyte-derived macrophages; anti-IDO antibody pre-adsorbed with the immunizing peptide, which competes with IDO

- effect of excess L-tryptophan with IDO-knockout pDCs (IDO [3]; TDLN cells from IDO-knockout mice): no effect
- DC-mediated inhibition of T cell proliferation with supra-physiologic tryptophan (IDO [4]): completely reversed
Molecule: N[C@@H](Cc1c[nH]c2ccccc12)C(=O)O [L-tryptophan]
- suppression by pDCs with excess L-tryptophan (IDO [3]; 250 uM, IDO-sufficient host): abrogated; also recorded: abrogates suppression

- oral bioavailability ([1]; PO): 105%
Molecule: Cn1cc(C[C@H](N)C(=O)O)c2ccccc21 [L 1-MT, reference compound]

- reduction of flow cytometry signal [7]: > 95%
Molecule: LIESGQLRERVEKLNMLC (also: conjugated to keyhole limpet carrier protein for immunisation) [immunizing peptide … (SEQ ID NO:1), based on human IDO]

Continued, molecule first:

Molecule: Cn1cc(C[C@@H](N)C(=O)O)c2ccccc21 [1-methyl-D-tryptophan]
- apparent volume of distribution ([1]; D versus L isomer): relatively greater
- bioavailability ([1]; mouse, plasma, po, 50 mg/kg): 64%
- anti-tumor effect of combination with radiation (B16F10 melanomas; replicate radiation studies): enhanced effect over radiation alone
- accumulation in liver, D versus L isomer [2]: at least equal, and possibly preferential, accumulation
- distribution into muscle and spleen, D versus L isomer [2]: equivalent distribution
- levels in plasma and in brain, D versus L isomer [2]: lower levels

Molecule: Cn1cc(C[C@H](N)C(=O)O)c2ccccc21 [1MT, 1-methyl-tryptophan]
- effect of 1MT over cyclophosphamide alone in immunodeficient hosts (B16F10 melanomas; RAG1-knockout hosts): no enhancing effect
- effect on tumor growth, 1MT alone (B16F10 melanomas): no effect
- suppression in recall MLRs (IDO [5]): no effect; also recorded: not restored
- IDO-mediated prevention of tumor rejection by pre-immunized hosts (P815 with IDO): substantially reversed
- tumor outgrowth [6]: significantly delayed tumor outgrowth

Molecule: Cn1cc(CC(N)C(=O)O)c2ccccc21 (racemic) [DL racemic form of 1MT, reference compound]
- tumor growth, 1MT with cyclophosphamide (B16F10 melanomas; 20 mg per mouse per day DL racemic, cyclophosphamide 150 mg/kg x 1 dose): significantly reduce tumor growth
- tumor growth, 1MT with radiation (B16F10 melanomas; 20 mg per mouse per day DL racemic, total-body radiation 500 cGy single dose): significantly reduce tumor growth
- effect on tumor growth, 1MT alone (B16F10 melanomas): no effect
